In patent publication US20020137209A1, “Methods of dissociating nongenotropic from genotropic activity of steroid receptors” (priority 2000, published 2002):

What was measured:
[1] = test system: embryonic fibroblasts derived from Src−/− mice; assay: Apoptosis in embryonic fibroblasts from Src−/− mice; assay type: cell-based; settings: ER- and AR-expressing, also lack yes and Fyn
Method: Cell lysates were obtained and proteins were analyzed by Western blot analysis using anti-ERK1/2 or anti-phospho-ERK1/2 (p-ERK1/2) antibodies. […] After 30 min, etoposide was added and apoptosis was assayed 6 hours later as in FIG. 1B. […] RT-PCR was performed as described in the experimental procedures. C-E. HeLa cells were transfected with Nuc-EGFP and with expression vectors encoding the full length ERα or its E domain, or the AR alone (C, left panel) or together with a dn MEK (C, right panel); a Src mutant lacking the kinase activity (Src K^−), a Src mutant lacking the SH2 domain (Src ΔSH2), or a Src mutant lacking the SH3 domain (Src ΔSH3) (D); or with ERα together with wt Shc, or the dn Shc mutants Y239F/Y240F/Y317F (Shc FFF), Y317F (Shc YYF) or Y239F/Y240F (Shc FFY) (E). Bars represent means±SD of triplicate determinations. *p<0.05 versus cells cultured without steroids, by ANOVA.
Quantification of apoptotic cells in vitro. Apoptotic cells were quantified either by trypan blue staining or by direct visualization of changes in nuclear morphology (in the case of transfected HeLa cells), as previously described (Plotkin,L. et al. (1999). J.
RT-PCR analysis of the ERs and AR in embryonic fibroblasts. […]

[2] = test system: osteocytic cell line MLO-Y4; assay: Apoptosis of MLO-Y4 osteocytic cells (trypan blue); assay type: cell-based
ERβ = ERβ (Homo sapiens, UniProt Q92731); assay: Etoposide-induced apoptosis in HeLa cells transfected with ERβ; settings: HeLa transfected with ERβ
[3] = test system: HeLa cells transfected with the vector without receptor (empty vector, ev); assay: Etoposide-induced apoptosis in HeLa cells transfected with empty vector; settings: 10^−12M to 10^−8 M
[4] = test system: lactoferrin mRNA in the uterus; settings: WT mice, E2 20 ng/g body weight for 28 days; stated as known; cited from earlier work
[5] = test system: vertebral osteoblast and osteocyte apoptosis; assay: Osteoblast and osteocyte apoptosis in vertebrae of ovariectomized mice (TUNEL); assay type: in vivo; settings: data not shown
[6] = test system: calvaria-derived murine osteoblastic cells; assay: Apoptosis of calvaria-derived osteoblastic cells (trypan blue); settings: 10^−8 M steroid
ERK1/2 = assay: ERK phosphorylation in MLO-Y4 cells (Western blot); assay type: cell-based; settings: MLO-Y4 cells
Method: Western blot analysis. The phosphorylation status of ERK1/2 was analyzed by immunoblotting using a mouse monoclonal antibody recognizing tyrosine phosphorylated ERK1/2, or a rabbit polyclonal antibody recognizing total ERK1/2, followed by incubation with either an anti-mouse or an anti-rabbit antibody conjugated with horseradish peroxidase (Santa Cruz Biotechnology).

[7] = Bone remodeling in mice given doxycycline in drinking water; assay type: in vivo; settings: 0.5 mg/ml in drinking water; stated as established
Method: Tet-F6 and wild type animals are assessed for bone mass by in vivo DEXA analysis at weekly intervals following the turning on of the transgene or the overiectomy. At the end of the 4-6 week period, both groups of animals are sacrificed and the following determinations made: a) whole body and uterine and mammary gland weights, b) length of the long bones and the width between the periosteal and endosteal bone, c) osteoblastogenesis and osteoclastogenesis in ex vivo cultures of bone marrow cells, d) prevalence of osteoblast/osteocyte and osteoclast apoptosis in sections of vertebrae, e) rate of bone formation and resorption by dynamic histomorphometry and f) compression strength of the vertebrae. An intraperitoneal injection of 30ng/g body weight of oxytetracycline-hydrochloride is administered 8 days and 2 days before sacrificing the animals for the dynamic histomorphometry analysis. It is important to note that the TET ON system is 100-1000 fold less sensitive to tetracycline than it is to doxycycline. […] Therefore, this maneuver should not influence the expression of the transgene, which at this stage will have been turned on with doxycycline.

Chain of ERβ (Q92731 whole entry, species assumed): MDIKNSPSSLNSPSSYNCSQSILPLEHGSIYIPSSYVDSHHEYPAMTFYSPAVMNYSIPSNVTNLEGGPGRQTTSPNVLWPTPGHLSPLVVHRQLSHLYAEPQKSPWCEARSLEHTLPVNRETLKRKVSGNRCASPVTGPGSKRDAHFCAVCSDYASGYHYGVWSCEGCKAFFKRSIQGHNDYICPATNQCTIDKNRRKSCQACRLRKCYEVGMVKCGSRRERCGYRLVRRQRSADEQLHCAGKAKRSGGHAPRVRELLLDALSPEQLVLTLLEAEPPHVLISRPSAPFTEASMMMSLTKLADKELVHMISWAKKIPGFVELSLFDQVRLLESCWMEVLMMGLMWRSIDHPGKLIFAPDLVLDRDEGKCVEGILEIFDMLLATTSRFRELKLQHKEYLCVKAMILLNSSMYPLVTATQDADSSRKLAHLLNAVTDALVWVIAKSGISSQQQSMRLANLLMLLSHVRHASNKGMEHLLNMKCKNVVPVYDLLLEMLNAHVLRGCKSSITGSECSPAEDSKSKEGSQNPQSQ

Row | SMILES | anti-apoptotic effect in Src−/− fibroblasts (unlike Src+/+ wild type controls) [1] | prevention of apoptosis induced by etoposide, dexamethasone or TNFα ([2]; 10^−8 M steroid) | dose-dependent inhibition of etoposide-induced apoptosis compared with calvaria cells ([2]; not shown) | prevention of etoposide-induced apoptosis (ERβ) | effect on etoposide-induced apoptosis [3] | increase of lactoferrin mRNA in the uterus [4] | prevention of the ovariectomy-induced increase in osteoblast and osteocyte apoptosis [5] | prevention of apoptosis induced by etoposide, dexamethasone or TNFα [6] | time of maximal effect on phosphorylation of ERKs (ERK1/2) [min] | effect on bone remodeling [7]
1 | C[C@]12CC[C@@H]3c4ccc(O)cc4CC[C@H]3[C@@H]1CC[C@@H]2O [E2, 17β-estradiol] | unresponsive | prevented apoptosis | identical results | prevented apoptosis in a dose-dependent manner | Neither E2 nor DHT (10^−12M to 10^−8 M) had an effect | approximately 5 fold | prevented | prevented apoptosis | 5 | –
2 | C[C@H]1c2cccc(O)c2C(=O)C2=C(O)[C@]3(O)C(=O)C(C(N)=O)=C(O)[C@@H](N(C)C)[C@@H]3[C@@H](O)[C@@H]21 [doxycycline] | – | – | – | – | – | – | – | – | – | no effect on bone remodeling
